# Experimental data: patent US12053504B2, “Anti-angiogenic treatment using VLO4 with a blocking peptide” ([…] OF PHARMACY, LLC, priority 2011, dated 2024)
# Entries after “also recorded” stand apart in the source; their conditions may differ.
# How the values were obtained:
# colorectal cancer = settings: in combination with the standard Saltz regime of irinotecan, 5-fluorouracil, and leucovorin; cited from earlier work
# HT1080 tumor cell = HT1080 tumor cell invasion from contracted collagen into fibrin 3D matrices; assay type: cell-based; settings: for HT1080 tumor cell invasion from contracted collagen into fibrin 3D matrices: 3 μg/ml, FIGS. 11 and 12
# HDMEC = test: Microcarrier (EC-bead) in vitro sprout angiogenesis assay of HDMEC in fibrin gel; assay type: cell-based, human; settings: for sprout angiogenesis in a HDMEC culture in VEGF and bFGF (Example 4): agent(s) added to HDMEC culture in VEGF and bFGF, doses not printed in this block; for sprout angiogenesis of HDMEC in fibrin induced by VEGF and bFGF: 3 days; for sprout angiogenesis of HDMEC in fibrin, single agent (Example 4 summary): in vitro, doses not given
# Method: Human dermal microvascular endothelial cells (HDMEC) were isolated from human neonatal foreskins. Briefly, after initial harvest from minced trypsinized human foreskins, microvascular endothelial cells were further purified on a PERCOLL density gradient. HDMEC were cultured on collagen type 1 coated tissue culture flasks in EGM (endothelial cell growth medium) consisting of EBM supplemented with 10 ng/ml epidermal growth factor, 0.4% bovine brain extract, 17.5 microg/ml dibutyryl cyclic AMP, and 1 microg/ml hydrocortisone in the presence of 30% normal human serum. Endothelial cell cultures were characterized and determined to be >99% pure on the basis of formation of typical cobblestone monolayers in culture, positive immunostaining for factor VIII-related antigen, and selective uptake of acetylated low density lipoprotein. All experiments were done with HDMEC below passage 10. Bovine aortic endothelial cells (BAEC) were obtained from BioWhittaker, Inc. (Walkersville, MD) and cultured according to manufacturer's instruction. BAEC between passage 4 and 8 were used for experiments.
# Gelatin-coated CYTODEX-3 microcarrier beads were prepared as described by the manufacturer. Approximately 80,000 sterile microcarrier beads were washed, resuspended in EGM, and added to approximately 4.5 million endothelial cells (HDMEC or BAEC). The beads and cells were mixed by gentle swirling, incubated at 37° C. for 6 hr, and then rotated for 24-36 hr on an orbital mixer in a 37° C. oven to generate endothelial cell-loaded microcarrier beads (EC-beads).
# FIGS. 1A-1C illustrate a study of human microvascular endothelial cell angiogenesis, according to some embodiments. A microcarrier, in vitro angiogenesis assay, previously designed to investigate bovine pulmonary artery endothelial cell angiogenic behavior in bovine fibrin gels, was modified for the study of human microvascular endothelial cell angiogenesis. The HDMEC were isolated from human neonatal foreskins and used, as described above, and images were captured at various magnifications, where the effect of angiogenic factors on sprout angiogenesis was quantified visually by counting the number and percent of EC-beads with capillary sprouts. […]
# For experiments using RGD peptides, EC-beads were firstly incubated with vary concentrations of peptides for one hour and then were added to the ECM solutions. About 500 EC-beads were then added to the ECM protein solutions, followed by the addition of 0.5 U/ml human thrombin. A 0.3 ml aliquot of each suspension was immediately added to appropriate wells of a 24-well tissue culture plate. After gelation, 1 ml of fresh assay medium (EBM supplemented with 20% normal human serum for HDMEC or EBM supplemented with 10% fetal bovine serum for BAEC) was added to each well.
# FIGS. 1B and 1C show how the angiogenic response was monitored visually and recorded by video image capture. Specifically, capillary sprout formation was observed and recorded with a NIKON Diaphot-TMD inverted microscope (Nikon Inc., Melville, NY), equipped with an incubator housing with a NIKON NP-2 thermostat and Sheldon #2004 carbon dioxide flow mixer. The microscope was directly interfaced to a video system consisting of a Dage-MTI CCD-72S video camera and Sony 12″ PVM-122 video monitor linked to a Macintosh G3 computer. The images were captured at various magnifications using Adobe Photoshop. The effect of angiogenic factors on sprout angiogenesis was quantified visually by determining the number and percent of EC-beads with capillary sprouts. 100-200 beads (five random low power fields) in each of triplicate wells were counted for each experimental condition. All experiments were repeated at least three times.
# [1] = target: collagen receptors α2β1 integrins (Homo sapiens, UniProt P05556+P17301); settings: cited from earlier work
# [2] = system: H1650 (Human metastatic lung cancer cell line); test: H1650 tumor cell proliferation; assay type: cell-based; settings: FIG. 13
# [3] = system: A549 (human alveolar adenocarcinoma cell line); test: A549 tumor cell proliferation; assay type: cell-based; settings: FIG. 13
molecule,measurement,setting,value
AVASTATIN: human monoclonal antibody to VEGF,increase in survival time,colorectal cancer,more than 30%
Echistatin (QCESGPCCRNCKFLKEGTICKRARGDDMDDYCNGKTCDCPRNPHKGPAT),HT1080 tumor cell invasion from contracted collagen into fibrin 3D matrices,HT1080 tumor cell,significantly inhibit
same,sprout angiogenesis in a HDMEC culture in VEGF and bFGF (Example 4),HDMEC,inhibition
same,sprout angiogenesis of HDMEC in fibrin induced by VEGF and bFGF,"HDMEC; echistatin 0.1 μg/ml alone, VEGF 30 ng/ml, bFGF 25 ng/ml, FIG. 10B",didn't significantly inhibit
same,"sprout angiogenesis of HDMEC in fibrin, single agent (Example 4 summary)",HDMEC,dose dependently inhibits
"GPenGRGDSPCA [RGD[VN], reference compound]",sprout angiogenesis of HDMEC in fibrin,"HDMEC; RGD[VN] 12.5 mM-100 mM, pre-incubated 1 hr at RT, VEGF 100 ng/ml, compared to GRGESP[RGE] control peptide, FIG. 4",significantly inhibited
VP12,HT1080 tumor cell invasion from contracted collagen into fibrin 3D matrices,HT1080 tumor cell,significantly inhibit
same,inhibitory activity against collagen receptors α2β1 integrins,[1],potent inhibitory activity
same,sprout angiogenesis of HDMEC in fibrin induced by VEGF and bFGF,"HDMEC; VP12 10 μg/ml alone, VEGF 30 ng/ml, bFGF 25 ng/ml",didn't significantly inhibit
same,enhancement of the inhibition of sprout angiogenesis by echistatin,HDMEC; VP12 (ECL12) administered in combination with echistatin,significantly and synergistically enhanced
same,sprout angiogenesis in a HDMEC culture in VEGF and bFGF (Example 4),HDMEC,inhibition
same,"sprout angiogenesis of HDMEC in fibrin, single agent (Example 4 summary)",HDMEC,no inhibitory effect
VLO4 (protein) MNSGNPCCDPVTCKPRRGEHCVSGPCCRNCKFLNAGTICKRARGDDMNDYCTGISPDCPRNPWKG,HT1080 tumor cell invasion from contracted collagen into fibrin 3D matrices,HT1080 tumor cell,significantly inhibit
same,"HT1080 tumor cell invasion from contracted 3D collagen matrices into 3D fibrin matrices, dose dependence",HT1080 tumor cell; FIG. 11,dose dependently inhibits
same,H1650 tumor cell proliferation,[2],significantly inhibited
same,sprout angiogenesis of HDMEC in fibrin induced by VEGF and bFGF,"HDMEC; VLO4 0.01 μg/ml alone, VEGF 30 ng/ml, bFGF 25 ng/ml",didn't significantly inhibit
same,sprout angiogenesis of HDMEC induced by VEGF in fibrin,"HDMEC; VLO4 0.3 μg/ml-3 μg/ml, 30 minutes at RT, VEGF 100 ng/ml, FIG. 5",dose-dependently inhibits
same,disruption of newly formed angiogenic sprouts of HDMEC in fibrin,"HDMEC; VLO4 3 μg/ml added on day 5, read within 24 hours, VEGF 30 ng/ml, bFGF 25 ng/ml, CH2 10 μg/ml, FIG. 7B",totally disrupted; also recorded: disrupts
same,sprout angiogenesis of HDMEC induced by VEGF in fibrin (micrographs),"HDMEC; VLO4 0.01, 0.1, 0.3 and 1 μg/ml, 30 minutes at room temperature, VEGF 100 ng/ml, FIGS. 6A-6D",dose-dependently inhibits
same,A549 tumor cell proliferation,[3],significantly inhibited
